{"source": "PubChem BioAssay AID2060609", "about": "(Molecular Pharmacology Branch, DTP, NCI, 2025)", "system": "855422-203-R-J1-PDC complex spheroids, viability", "assay": "Anticancer human tumor 855422-203-R-J1-PDC patient-derived bladder carcinoma cell line growth inhibition [CLK]", "conditions": "for pIC50: curve of first compound; for viability, T/C: stronger effect = lower value", "from_the_text": "A high-throughput screen of multi-cell type tumor spheroids was designed to identify active combinations of […] and targeted small molecules. Complex spheroids include a stromal component modeled by human endothelial cells (HUVEC) and fibroblasts modeled by human mesenchymal stem cells (MSCs). The concentration ranges selected for each drug and investigational agent were based upon clinically achievable concentrations if the clinical Cmax of the agent was known.\nCompounds. The drugs and investigational agents: cirtuvivint (SM08502; NSC835563), CC-671 (NSC850746), vemurafenib (NSC761431), tapotoclax (NSC804041), sotorasib (NSC818433), adagrasib (NSC831453), MRTX-1133 (NSC836407), BAY2416964 (NSC825713), copanlisib (NSC816437), inavolisib (NSC800729), abemaciclib (NSC768073), osimertinib (NSC779217), entinostat (NSC756642), eltanexor (KPT-8602, NSC794443), venetoclax (NSC766270), ceralasertib (NSC777638), bortezomib (NSC756655), olaparib (NSC753686), talazoparib (NSC767125), alisertib (NSC759677), peposertib (NSC802822), gemcitabine (NSC613327), 5-fluorouracil (NSC19893), SN-38 (NSC673596), oxaliplatin (NSC266046), paclitaxel (NSC125973), and doxorubicin (NSC123127), were obtained from the National Cancer Institute (NCI) Developmental Therapeutics Program Chemical Repository. The FDA-approved anticancer drug set is available from the Developmental Therapeutics Program at https://dtp.cancer.gov/organization/dscb/obtaining/available plates.htm. […] The stock solutions were prepared in dimethyl sulfoxide (DMSO, Sigma-Aldrich, St. Louis, MO, cat. D2650), except for the platinum complexes which were prepared in saline (Quality Biological, Gaithersburg, MD, cat. 114-055-101), at 800-fold the tested concentration and stored at -70 degrees C prior to their use. All drugs and investigational agents were tested over a range starting from a high concentration at or near the clinical Cmax and decreasing in half-log increments. If the clinical Cmax for an agent had not been determined, the highest concentration tested was 10 microM.\nCell Culture. All cells were maintained in an incubator at 37 degrees C and 5% CO2 with 95% humidity. The PDC lines were cultured according to standard operating procedures established by the NCI PDMR. Briefly, all PDCs were thawed and cultured in Matrigel-coated flasks prepared with a working solution of 1X Ham's F-12 nutrient mix, without supplementation (Invitrogen, Waltham, MA, cat. 11765054), 100 U/mL penicillin-streptomycin (Invitrogen, cat. 15140122), and 2.5% Matrigel (Corning Inc., Corning, NY, cat. 354248) for the first three passages. The 947758-054-R-J2-PDC line was cultured in 6B/Colon 1A media, which includes advanced DMEM/F-12 (Thermo Fisher Scientific, cat. 12634028), 10 mM HEPES (Thermo Fisher Scientific, cat. 15630080), 1X GlutaMAX supplement (Thermo Fisher Scientific, cat. 35050061), 0.1 mg/mL primocin (InvivoGen, cat. ant-pm-2), 10% defined fetal bovine serum, heat inactivated (HyClone Laboratories Inc., cat. SH30070.03HI), 1.25 mM N-Acetyl-L-cysteine (Sigma-Aldrich, cat. A9165), 10 mM nicotinamide (Sigma-Aldrich, cat. N0636), 1X B-27 supplement (Thermo Fisher Scientific, cat. 17504044), 1X N-2 supplement (Thermo Fisher Scientific, cat. 17502048), and 10 microM Y-27632 dihydrochloride (Tocris Bioscience, cat. 1254). The 876862-298-R-J1-PDC was cultured in 6E media, which includes all 6B/Colon 1A media components plus 50% L-WRN conditioned media (ATCC, cat. CRL-3276), 50 ng/mL recombinant human EGF recombinant protein (hEGF; Thermo Fisher Scientific, cat. PHG0311), 10 ng/mL recombinant human fibroblast growth factor 10 (hGFG-10; PeproTech, cat. 100-26), 1 ng/mL recombinant human fibroblast growth factor 2 (hFGF-2; PeproTech, cat. 100-18B), and 1 µM prostaglandin E2 (PGE2; Tocris, cat. 2296). The 227483-062-R1-J1-PDC line was cultured in Panc media, containing all 6E components except hFGF-2, with the addition of 500 nM SB-431542 (Selleckchem, cat. S1067) and 10 nM gastrin (Tocris, cat. 3006). […]", "note": "pIC50: −log10 of the molar value.", "data": [{"molecule": "C#Cc1c(F)ccc2cc(O)cc(-c3ncc4c(N5CC6CCC(C5)N6)nc(OCC56CCCN5CC(F)C6)nc4c3F)c12", "note": "(configuration not stated) + CN1CCN(c2cc(C(=O)Nc3cc4cc(-c5cnn(C)c5)ccc4cn3)ccn2)CC1;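 further: spheroids exposed to drugs for seven days before readout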;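 on viability, T/C: 100% = DMSO vehicle control wells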", "values": [{"measurement": "pIC50", "setting": "second compound 0.0316 µM", "value": "< 5.00"}, {"measurement": "pIC50", "setting": "second compound 0.1 µM", "value": "< 5.00"}, {"measurement": "pIC50", "setting": "second compound 0.316 µM", "value": "> 7.50"}, {"measurement": "pIC50", "setting": "second compound 1 µM", "value": "> 7.50"}, {"measurement": "pIC50", "setting": "second compound 3.16 µM", "value": "> 7.50"}, {"measurement": "pIC50", "setting": "second compound 10 µM", "value": "> 7.50"}, {"measurement": "viability, T/C", "setting": "second compound 0.0316 µM, first compound 0.0316 µM", "value": 106, "unit": "%"}, {"measurement": "viability, T/C", "setting": "second compound 0.0316 µM, first compound 0.1 µM", "value": 98.8, "unit": "%"}, {"measurement": "viability, T/C", "setting": "second compound 0.0316 µM, first compound 0.316 µM", "value": 119, "unit": "%"}, {"measurement": "viability, T/C", "setting": "second compound 0.0316 µM, first compound 1 µM", "value": 98.8, "unit": "%"}, {"measurement": "viability, T/C", "setting": "second compound 0.0316 µM, first compound 3.16 µM", "value": 104, "unit": "%"}, {"measurement": "viability, T/C", "setting": "second compound 0.0316 µM, first compound 10 µM", "value": 113, "unit": "%"}, {"measurement": "viability, T/C", "setting": "second compound 0.1 µM, first compound 0.0316 µM", "value": 84.4, "unit": "%"}, {"measurement": "viability, T/C", "setting": "second compound 0.1 µM, first compound 0.1 µM", "value": 84.4, "unit": "%"}, {"measurement": "viability, T/C", "setting": "second compound 0.1 µM, first compound 0.316 µM", "value": 85.1, "unit": "%"}, {"measurement": "viability, T/C", "setting": "second compound 0.1 µM, first compound 1 µM", "value": 89.2, "unit": "%"}, {"measurement": "viability, T/C", "setting": "second compound 0.1 µM, first compound 3.16 µM", "value": 93.3, "unit": "%"}, {"measurement": "viability, T/C", "setting": "second compound 0.1 µM, first compound 10 µM", "value": 81.9, "unit": "%"}, {"measurement": "viability, T/C", "setting": "second compound 0.316 µM, first compound 0.0316 µM", "value": 13, "unit": "%"}, {"measurement": "viability, T/C", "setting": "second compound 0.316 µM, first compound 0.1 µM", "value": 12.4, "unit": "%"}, {"measurement": "viability, T/C", "setting": "second compound 0.316 µM, first compound 0.316 µM", "value": 14.8, "unit": "%"}, {"measurement": "viability, T/C", "setting": "second compound 0.316 µM, first compound 1 µM", "value": 15.1, "unit": "%"}, {"measurement": "viability, T/C", "setting": "second compound 0.316 µM, first compound 3.16 µM", "value": 14.9, "unit": "%"}, {"measurement": "viability, T/C", "setting": "second compound 0.316 µM, first compound 10 µM", "value": 8.68, "unit": "%"}, {"measurement": "viability, T/C", "setting": "second compound 1 µM, first compound 0.0316 µM", "value": 0.86, "unit": "%"}, {"measurement": "viability, T/C", "setting": "second compound 1 µM, first compound 0.1 µM", "value": 0.58, "unit": "%"}, {"measurement": "viability, T/C", "setting": "second compound 1 µM, first compound 0.316 µM", "value": 0.22, "unit": "%"}, {"measurement": "viability, T/C", "setting": "second compound 1 µM, first compound 1 µM", "value": 0.24, "unit": "%"}, {"measurement": "viability, T/C", "setting": "second compound 1 µM, first compound 3.16 µM", "value": 0.22, "unit": "%"}, {"measurement": "viability, T/C", "setting": "second compound 1 µM, first compound 10 µM", "value": 0.17, "unit": "%"}, {"measurement": "viability, T/C", "setting": "second compound 3.16 µM, first compound 0.0316 µM", "value": 0.39, "unit": "%"}, {"measurement": "viability, T/C", "setting": "second compound 3.16 µM, first compound 0.1 µM", "value": 0.72, "unit": "%"}, {"measurement": "viability, T/C", "setting": "second compound 3.16 µM, first compound 0.316 µM", "value": 0.49, "unit": "%"}, {"measurement": "viability, T/C", "setting": "second compound 3.16 µM, first compound 1 µM", "value": 0.38, "unit": "%"}, {"measurement": "viability, T/C", "setting": "second compound 3.16 µM, first compound 3.16 µM", "value": 1.64, "unit": "%"}, {"measurement": "viability, T/C", "setting": "second compound 3.16 µM, first compound 10 µM", "value": 0.18, "unit": "%"}, {"measurement": "viability, T/C", "setting": "second compound 10 µM, first compound 0.0316 µM", "value": 0.42, "unit": "%"}, {"measurement": "viability, T/C", "setting": "second compound 10 µM, first compound 0.1 µM", "value": 0.85, "unit": "%"}, {"measurement": "viability, T/C", "setting": "second compound 10 µM, first compound 0.316 µM", "value": 0.3, "unit": "%"}, {"measurement": "viability, T/C", "setting": "second compound 10 µM, first compound 1 µM", "value": 0.35, "unit": "%"}, {"measurement": "viability, T/C", "setting": "second compound 10 µM, first compound 3.16 µM", "value": 0.3, "unit": "%"}, {"measurement": "viability, T/C", "setting": "second compound 10 µM, first compound 10 µM", "value": 0.2, "unit": "%"}]}]}
